Assay results: ChEMBL document CHEMBL1201862, “PubChem BioAssay data set” (2004)
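Grown in 96-well plates, cells were treated for 48 hours with each compound at five concentrations. Insufficient inhibition: endpoint recorded as highest concentration tested. GI50: concentration for 50% inhibition of growth.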 The source made the active and inactive calls. No stated cut-off is given here; in the data, active = GI50 up to about 1.1 µM and inactive = higher.

Assays:
Assay in all cases: DTP human tumour cell line panel, 48 h
[1] = system: IGROV-1
[2] = system: SK-OV-3
[3] = system: SF-539
[4] = system: SN12C
[5] = system: MOLT-4
[6] = system: SK-MEL-5
[7] = system: UO-31
[8] = system: K562
[9] = system: HOP-62
[10] = system: SK-MEL-28
[11] = system: SR
[12] = system: HCT-15
[13] = system: HT-29
[14] = system: 786-0
[15] = system: COLO 205
[16] = system: NCI-H226
[17] = system: A498
[18] = system: SK-MEL-2
[19] = system: OVCAR-5
[20] = system: CAKI-1

CC[P+](C)(Cc1ccccc1)c1ccccc1 (stereo not drawn)
GI50 [1]: > 100 µM (inactive)
GI50 [2]: > 100 µM (inactive)
GI50 [3]: > 100 µM (inactive)
GI50 [4]: > 100 µM (inactive)
GI50 [5]: > 100 µM (inactive)
GI50 [6]: 51.3 µM (inactive)
GI50 [7]: > 100 µM (inactive)
GI50 [8]: > 100 µM (inactive)
GI50 [9]: > 100 µM (inactive)
GI50 [10]: > 100 µM (inactive)
GI50 [11]: > 100 µM (inactive)
GI50 [12]: > 100 µM
GI50 [13]: > 100 µM (inactive)
GI50 [14]: > 100 µM (inactive)
GI50 [15]: 69.5 µM (inactive)
GI50 [16]: > 100 µM (inactive)
GI50 [17]: > 100 µM (inactive)
GI50 [18]: > 100 µM (inactive)
GI50 [19]: > 100 µM (inactive)

Cc1c(C(=O)/C=C/c2ccc3c(c2)OCO3)[n+]([O-])c2ccccc2[n+]1[O-]
GI50 [1]: 34.6 µM (inactive)
GI50 [2]: 21.3 µM (inactive)
GI50 [3]: 22.5 µM (inactive)
GI50 [4]: 23 µM (inactive)
GI50 [5]: 22.9 µM (inactive)
GI50 [7]: 28 µM (inactive)
GI50 [8]: 33 µM (inactive)
GI50 [9]: > 100 µM (inactive)
GI50 [10]: 61 µM (inactive)
GI50 [11]: 30.3 µM (inactive)
GI50 [13]: 26.4 µM (inactive)
GI50 [14]: 42.1 µM (inactive)
GI50 [15]: 27.7 µM (inactive)
GI50 [16]: 16 µM (inactive)
GI50 [20]: 25.9 µM (inactive)
GI50 [17]: 20.4 µM (inactive)
GI50 [19]: 27.8 µM (inactive)

O=c1c(O)c(-c2ccc(O)c(O)c2)oc2cc(O)ccc12 [FISETIN]
GI50 [1]: 18.6 µM (inactive)
GI50 [2]: 9.66 µM (inactive)
GI50 [3]: 12 µM (inactive)
GI50 [4]: 20.8 µM (inactive)
GI50 [5]: 17 µM (inactive)
GI50 [6]: 13.1 µM (inactive)
GI50 [7]: 14.5 µM (inactive)
GI50 [8]: 25 µM (inactive)
GI50 [9]: 20.2 µM (inactive)
GI50 [10]: 21.7 µM (inactive)
GI50 [11]: 18 µM (inactive)
GI50 [12]: 14.4 µM
GI50 [13]: 25.8 µM (inactive)
GI50 [14]: 24.8 µM (inactive)
GI50 [15]: 47.4 µM (inactive)
GI50 [16]: 9.79 µM (inactive)
GI50 [17]: 26.3 µM (inactive)
GI50 [18]: 8.75 µM (inactive)
GI50 [19]: 17.2 µM (inactive)

C=CCOc1ccc(C(=N/NC(=O)c2ccccc2)/N=N/c2ccc(C)cc2)cc1OC
GI50 [1]: 18.7 µM (inactive)
GI50 [4]: 31.7 µM (inactive)
GI50 [5]: 26.5 µM (inactive)
GI50 [6]: 17.9 µM (inactive)
GI50 [7]: 24.8 µM (inactive)
GI50 [9]: 37.8 µM (inactive)
GI50 [10]: 20 µM (inactive)
GI50 [11]: 6.17 µM (inactive)
GI50 [12]: 35.1 µM
GI50 [13]: 20.3 µM (inactive)
GI50 [14]: 33.9 µM (inactive)
GI50 [15]: 16.5 µM (inactive)
GI50 [16]: 20.6 µM (inactive)
GI50 [20]: 40.8 µM (inactive)
GI50 [17]: 25.6 µM (inactive)
GI50 [18]: 23.2 µM (inactive)
GI50 [19]: 42.6 µM (inactive)

O=[N+]([O-])C(=C(NCc1ccccc1)NCc1ccccc1)C(Cl)=C(Cl)Cl
GI50 [1]: 34 µM (inactive)
GI50 [2]: 51.1 µM (inactive)
GI50 [3]: 43 µM (inactive)
GI50 [4]: 34.9 µM (inactive)
GI50 [5]: 23.1 µM (inactive)
GI50 [6]: 20.2 µM (inactive)
GI50 [7]: 25.3 µM (inactive)
GI50 [8]: 22.3 µM (inactive)
GI50 [9]: > 100 µM (inactive)
GI50 [10]: 61.2 µM (inactive)
GI50 [11]: 23.8 µM (inactive)
GI50 [12]: 23.3 µM
GI50 [13]: 39.5 µM (inactive)
GI50 [14]: 43.6 µM (inactive)
GI50 [15]: 19.4 µM (inactive)
GI50 [16]: 39.5 µM (inactive)
GI50 [20]: 10.7 µM (inactive)
GI50 [17]: 61.7 µM (inactive)

CN(C)Cc1cc(C(=O)/C=C/c2ccc(Cl)cc2Cl)cc(CN(C)C)c1O
GI50 [1]: 2.72 µM (inactive)
GI50 [3]: 4.4 µM (inactive)
GI50 [4]: 1.78 µM (inactive)
GI50 [5]: 1.88 µM (inactive)
GI50 [6]: 1.96 µM (inactive)
GI50 [7]: 2.07 µM (inactive)
GI50 [8]: 1.48 µM (inactive)
GI50 [9]: 3.54 µM (inactive)
GI50 [10]: 6.25 µM (inactive)
GI50 [11]: 4.03 µM (inactive)
GI50 [12]: 3.17 µM
GI50 [13]: 2.07 µM (inactive)
GI50 [14]: 3.77 µM (inactive)
GI50 [15]: 1.44 µM (inactive)
GI50 [16]: 8.57 µM (inactive)
GI50 [20]: 2.36 µM (inactive)
GI50 [17]: 2.4 µM (inactive)
GI50 [19]: 15.2 µM (inactive)
